Assay results: the supplement of paper PMC10307832

Assays:
Assay in all cases: relative viability (nuclei count vs DMSO), 5 days (fraction); higher = more cells survive
OSI-027 + Tozasertib = compound: COc1cccc2cc(-c3nc([C@H]4CC[C@H](C(=O)O)CC4)n4ncnc(N)c34)[nH]c12 [OSI-027] + Cc1cc(Nc2cc(N3CCN(C)CC3)nc(Sc3ccc(NC(=O)C4CC4)cc3)n2)n[nH]1 [Tozasertib] (partner 0.1 µM)
Procedure, shortened: (§1)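 Values are medians from duplicate plates. Each reflects relative viability, defined as the nuclei count of treated wells over that of vehicle wells. Lung cancer cell lines in 1536-well plates were pin-tool dosed one day after seeding with one drug alone or with a fixed anchor-drug dose plus five library-drug doses (not always all listed) in √10 steps, then fixed, stained and imaged at 4× after 5 days.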

Vemurafenib + Luminespib = compound: CCCS(=O)(=O)Nc1ccc(F)c(C(=O)c2c[nH]c3ncc(-c4ccc(Cl)cc4)cc23)c1F [Vemurafenib] + CCNC(=O)c1noc(-c2cc(C(C)C)c(O)cc2O)c1-c1ccc(CN2CCOCC2)cc1 [Luminespib] (partner 0.01 µM)
Procedure, shortened: as §1

Vemurafenib + Olaparib = compound: CCCS(=O)(=O)Nc1ccc(F)c(C(=O)c2c[nH]c3ncc(-c4ccc(Cl)cc4)cc23)c1F [Vemurafenib] + O=C(c1cc(Cc2n[nH]c(=O)c3ccccc23)ccc1F)N1CCN(C(=O)C2CC2)CC1 [Olaparib] (partner 8 µM)
Procedure, shortened: as §1

Alpelisib + Lapatinib = compound: Cc1nc(NC(=O)N2CCC[C@H]2C(N)=O)sc1-c1ccnc(C(C)(C)C(F)(F)F)c1 [Alpelisib] + CS(=O)(=O)CCNCc1ccc(-c2ccc3ncnc(Nc4ccc(OCc5cccc(F)c5)c(Cl)c4)c3c2)o1 [Lapatinib] (partner 2 µM)
Procedure, shortened: as §1

Cell Line	relative viability (OSI-027 + Tozasertib; first compound 0.01 µM)	relative viability (OSI-027 + Tozasertib; first compound 0.03162 µM)	relative viability (OSI-027 + Tozasertib; first compound 0.1 µM)	relative viability (OSI-027 + Tozasertib; first compound 0.3162 µM)	relative viability (OSI-027 + Tozasertib; first compound 1 µM)	relative viability (Vemurafenib + Luminespib; first compound 0.03162 µM)	relative viability (Vemurafenib + Luminespib; first compound 0.1 µM)	relative viability (Vemurafenib + Luminespib; first compound 0.3162 µM)	relative viability (Vemurafenib + Luminespib; first compound 1 µM)	relative viability (Vemurafenib + Olaparib; first compound 0.03162 µM)	relative viability (Vemurafenib + Olaparib; first compound 0.1 µM)	relative viability (Vemurafenib + Olaparib; first compound 0.3162 µM)	relative viability (Vemurafenib + Olaparib; first compound 1 µM)	relative viability (Alpelisib + Lapatinib; first compound 0.04 µM)	relative viability (Alpelisib + Lapatinib; first compound 0.1265 µM)	relative viability (Alpelisib + Lapatinib; first compound 0.4 µM)	relative viability (Alpelisib + Lapatinib; first compound 1.265 µM)	relative viability (Alpelisib + Lapatinib; first compound 4 µM)
ChaGo-K-1	0.208	0.222	0.203	0.382	0.172	0.555	0.45	0.548	0.551	0.404	0.4	0.49	0.382					
EBC-1										0.451	0.657	0.723	0.649	0.21	0.184	0.211	0.238	0.232
EKVX	0.299	0.358	0.406	0.349	0.269	0.884		0.921	0.842	0.891		0.898	0.911	0.195	0.34	0.184	0.174	0.175
EMC-BAC-2	0.281	0.284	0.254	0.287	0.24	1.08	1.03	1.19	1.22	0.444	0.528	0.352	0.369	0.826	0.844	0.84	0.68	0.628
EPLC-272H	0.139	0.277	1.01	0.162	0.143	0.316	0.0941	0.494	0.228	0.717	0.742	0.834	0.867	0.859	0.842	0.805	0.7	0.525
H3255	0.749	0.62	0.604	0.555	0.436	0.837		0.824	0.809	0.497		0.519	0.556	0.242	0.215	0.259	0.203	0.197
HARA	0.472	0.099	0.115	0.0843	0.106	0.482	0.6	0.638	0.814	0.761	0.289	0.899	0.942	0.747	0.699	0.46	0.305	0.209
HCC-15	0.458	0.4	0.429	0.414	0.266	0.203	0.484	0.16	0.315	0.699	0.669	0.606	0.522	0.897	0.858	0.94	0.823	0.725
